Experimental data reported in ChEMBL document CHEMBL3352528, “Ejection of structural zinc leads to inhibition of γ-butyrobetaine hydroxylase” (Bioorg Med Chem Lett, 2014).
Calls of active or inactive are those of the source. The rule behind the calls is not given here.

Legend:
[1] = molecular target: T1, Gamma-butyrobetaine dioxygenase (Homo sapiens) (UniProt O75936); assay: Binding affinity to human BBOX assessed as quenching of intrinsic tryptophan fluorescence at 50 to 200 uM in absence of Fe(II)
T1 sequence (whole entry): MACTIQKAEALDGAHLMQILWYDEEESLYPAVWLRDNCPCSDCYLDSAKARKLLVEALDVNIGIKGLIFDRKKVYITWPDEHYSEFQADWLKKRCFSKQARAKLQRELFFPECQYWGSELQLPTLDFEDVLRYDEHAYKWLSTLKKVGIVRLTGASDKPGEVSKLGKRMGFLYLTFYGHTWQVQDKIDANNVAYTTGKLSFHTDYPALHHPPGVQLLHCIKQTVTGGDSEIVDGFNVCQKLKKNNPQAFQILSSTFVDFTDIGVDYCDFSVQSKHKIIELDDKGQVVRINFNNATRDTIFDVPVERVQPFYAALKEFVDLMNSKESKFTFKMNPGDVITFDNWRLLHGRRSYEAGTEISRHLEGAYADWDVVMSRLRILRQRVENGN

[2] = molecular target: T1, Gamma-butyrobetaine dioxygenase (Homo sapiens); assay: Induction of Zn(II) from human BBOX assessed as zinc release by fluorescence based assay
[3] = molecular target: T2, Gamma-butyrobetaine dioxygenase (Homo sapiens, UniProt O75936); assay: Inhibition of human BBOX pre-incubated for 1 min using TBS-protected fluorescein probe and Fe (II) (Fe(NH4)2(SO4)2 salt by fluoride release assay
T2 sequence (O75936 whole entry): T1 sequence (whole entry)

[4] = molecular target: T2, Gamma-butyrobetaine dioxygenase; assay: Inhibition of human BBOX pre-incubated for 20 mins using TBS-protected fluorescein probe and Fe (II) (Fe(NH4)2(SO4)2 salt by fluoride release assay
[5] = molecular target: T2, Gamma-butyrobetaine dioxygenase; assay: Inhibition of human BBOX pre-incubated for 10 mins using TBS-protected fluorescein probe and Fe (II) (Fe(NH4)2(SO4)2 salt by fluoride release assay
[6] = molecular target: T2, Gamma-butyrobetaine dioxygenase; assay: Binding affinity to human BBOX in presence of Fe(II) by tryptophan fluorescence quenching binding assay
[7] = molecular target: T2, Gamma-butyrobetaine dioxygenase; assay: Binding affinity to human BBOX by tryptophan fluorescence quenching binding assay
[8] = molecular target: T2, Gamma-butyrobetaine dioxygenase; assay: Inhibition of human BBOX pre-incubated for 15 mins using TBS-protected fluorescein probe and Fe (II) (Fe(NH4)2(SO4)2 salt by fluoride release assay
[9] = molecular target: T2, Gamma-butyrobetaine dioxygenase; assay: Inhibition of human BBOX pre-incubated for 25 mins using TBS-protected fluorescein probe and Fe (II) (Fe(NH4)2(SO4)2 salt by fluoride release assay

| Compound | Activity [1] | Activity [2] | IC50 [3] | IC50 [4] | IC50 [5] | Kd [6] | Kd [7] | IC50 [8] | IC50 [9] |
| --- | --- | --- | --- | --- | --- | --- | --- | --- | --- |
| O=C(O)CNC(=O)c1nc(Cl)c2ccccc2c1O | inactive | inactive | 36 µM | 32 µM | 33 µM | 13 µM | 122 µM |  |  |
| O[Se]c1ccccc1 | Active |  | 54 µM | 19 µM | 35 µM | > 200 µM | > 200 µM | 26 µM | 17 µM |
| c1ccc([Se][Se]c2ccccc2)cc1 | Active |  | 55 µM | 42 µM | 47 µM | > 200 µM | > 200 µM | 49 µM | 39 µM |
| CN(C)C(=S)SSC(=S)N(C)C [THIRAM] | Active |  | 56 µM | 7.9 µM | 34 µM | 35 µM | 59 µM | 14 µM | 5.8 µM |
| Cl[Se]c1ccccc1 | Active |  | 5.1 µM | 2.9 µM | 4 µM | 7.5 µM | 9.4 µM | 3.2 µM | 2.2 µM |
| Br[Se]c1ccccc1 | Active |  | 7.1 µM | 3 µM | 3.4 µM | 11 µM | 13 µM | 3.4 µM | 2.3 µM |
| O=c1c2ccccc2[se]n1-c1ccccc1 [EBSELEN] | Active |  | 0.69 µM | 0.83 µM | 0.71 µM | 4.6 µM | 3.6 µM | 0.76 µM | 0.72 µM |
| O=[Se](O)c1ccccc1 | Active |  | 35 µM | 4.7 µM | 11 µM | 12 µM | 7.6 µM | 6.3 µM | 2.6 µM |
